Source: patent publication US20250057910A1, “Application of Polypeptide in Preparation of Product for Preventing or Treating Skin Injury Diseases” (Sichuan Gooddoctor Panxi Pharmaceutical Co., Ltd., priority 2021, published 2025)
Ends that are not written are not given here.

Test system: SD rats
Assay: Healing of full-layer skin defect wound in SD rats
Format: in vivo, rat
Conditions: SD rats, topical once a day, polypeptide 50 μg/cm^2, comparative polypeptide 1 41.90 μg/cm^2, comparative polypeptide 2 52.66 μg/cm^2, Mean ± SD, n = 8
Procedure: Experimental animals: SD male rats, SPF grade, 6 weeks old, weighing 180-220 g, from Beijing Vital River Laboratory Animal Technology Co., Ltd., with the experimental animal quality certification number of NO.110011220109610345, and the experimental animal use license number of SCXK (Beijing) 2021-0011.
Experimental method: SD rats were randomly divided into […] based on the body weight with 8 animals in each group, namely, vehicle group, the polypeptide group (50 μg/cm^2), comparative polypeptide 1 group (41.90 μg/cm^2) and comparative polypeptide 2 group (52.66 μg/cm^2). The amino acid sequence of comparative polypeptide 1 is Glu-Pro-Val-Pro-Leu; and the amino acid sequence of comparative polypeptide 2 is Pro-Ala-Ala-Glu-Pro-Val-Pro-Leu-Val-Lys-Gln-Glu.
After each experimental rat was anesthetized by intraperitoneal injection of 2% pentobarbital sodium (0.2 mL/100 g), a 2 cm^2 full-layer skin defect wound was prepared at each of both sides of the back spine. After hemostasis of the wound, the corresponding drug was administered at the wound locally by group. Each group was administered once a day, with a dosed volume of 72 μL/wound each time, for 14 consecutive days. After the administration, the wound was covered with a sterile vaseline gauze (5 cm*5 cm), and bandaged with multi-layer sterile gauzes. After the wound surgery, the wound was photographed, and the wound area was recorded as the baseline value (the wound was recorded as Day0). During the administration period, the areas of the wounds were photographed and measured 3 times a week, and the healing was observed.

Substance | Wound healing rate (Day 0 (baseline)) | Wound healing rate (Day 3) | Wound healing rate (Day 5) | Wound healing rate (Day 7) | Wound healing rate (Day 10)
Glu-Pro-Val-Pro-Leu (EPVPL; printed: Glu-Pro-Val-Pro-Leu) [Comparative polypeptide 1] | 0.00 ± 0.00% | 21.13 ± 17.43% | 40.18 ± 17.43% | 68.84 ± 7.64% | 88.90 ± 8.40%
PAAEPVPLVKQE [Comparative polypeptide 2] | 0.00 ± 0.00% | 17.21 ± 22.78% | 50.08 ± 16.55% | 65.26 ± 14.46% | 90.34 ± 3.04%
